According to ChEMBL document CHEMBL3600379, “Radiosynthesis and preliminary PET evaluation of glycogen synthase kinase 3β (GSK-3β) inhibitors containing [(11)C]methylsulfanyl, [(11)C]methylsulfinyl or [(11)C]methylsulfonyl groups” (Bioorg Med Chem Lett, 2015):

What was measured:
Assay type in all cases: ADME, organism-based; call rule not given here
[1] = tested on: Brain; test: Drug uptake in brain of normal mouse at 15 to 20 MBq, iv measured at 15 mins by PET image analysis; conditions: in vivo, 0.25 h
[2] = tested on: Brain; test: Drug uptake in brain of cold water-induced mouse stress model at 15 to 20 MBq, iv measured at 15 mins by PET image analysis; conditions: in vivo, 0.25 h
[3] = tested on: Brain; test: Drug uptake in brain of cold water-induced mouse stress model at 15 to 20 MBq, iv measured at 2 mins by PET image analysis; conditions: in vivo
[4] = tested on: Brain; test: Drug uptake in brain of cold water-induced mouse stress model at 15 to 20 MBq, iv measured at 30 mins by PET image analysis; conditions: in vivo, 0.5 h
[5] = tested on: Brain; test: Drug uptake in brain of normal mouse at 15 to 20 MBq, iv measured at 2 mins by PET image analysis; conditions: in vivo
[6] = tested on: Brain; test: Drug uptake in brain of normal mouse at 15 to 20 MBq, iv measured at 30 mins by PET image analysis; conditions: in vivo, 0.5 h
[7] = tested on: Brain; test: Drug uptake in brain of cold water-induced mouse stress model at 15 to 20 MBq, iv measured over 60 mins by PET image analysis relative to normal mouse; conditions: in vivo, 1 h

Cc1nnc(-c2ccc3occ(-c4ccc([S+]([11CH3])[O-])cc4)c3c2)o1 (stereo not given)
SUV [1]: 0.3
SUV [2]: 0.3
SUV [3]: 0.8
Drug uptake [4]: Not Active
SUV [5]: 0.5
Drug uptake [6]: Not Active

Cc1nnc(-c2ccc3occ(-c4ccc(S([11CH3])(=O)=O)cc4)c3c2)o1
SUV [1]: 0.2
SUV [2]: 0.4
SUV [3]: 1.6
Drug uptake [4]: Not Active
SUV [5]: 0.7
fold change (FC) [7]: 2
Drug uptake [6]: Not Active

Cc1nnc(-c2ccc3occ(-c4ccc(S[11CH3])cc4)c3c2)o1
SUV [1]: 0.3
SUV [2]: 0.7
SUV [3]: 1.5
Drug uptake [4]: Not Active
SUV [5]: 1
fold change (FC) [7]: 2
Drug uptake [6]: Not Active
